Tests used:
[1] = CodeBreaK 100 multiple-dose PK; format: in vivo, human; details: for AUC(0-t) / Cmax / Tmax / half-life: human, plasma, po
patients with NSCLC = assay: CodeBreaK 100; format: in vivo
rats = assay: 3-month rat toxicology study; format: in vivo
CYP3A4 = CYP3A4 (Homo sapiens, UniProt P08684); assay: Metabolism of sotorasib; format: in vitro ADME
[2] = Clinical pharmacology: elimination, food effect, covariate effects on exposure; details: human, in vivo
Beagle dogs = details: 3-month dog study; cited from earlier work
[3] = 204 patients with NSCLC, 960 mg daily

Sequence of CYP3A4 (P08684 whole entry): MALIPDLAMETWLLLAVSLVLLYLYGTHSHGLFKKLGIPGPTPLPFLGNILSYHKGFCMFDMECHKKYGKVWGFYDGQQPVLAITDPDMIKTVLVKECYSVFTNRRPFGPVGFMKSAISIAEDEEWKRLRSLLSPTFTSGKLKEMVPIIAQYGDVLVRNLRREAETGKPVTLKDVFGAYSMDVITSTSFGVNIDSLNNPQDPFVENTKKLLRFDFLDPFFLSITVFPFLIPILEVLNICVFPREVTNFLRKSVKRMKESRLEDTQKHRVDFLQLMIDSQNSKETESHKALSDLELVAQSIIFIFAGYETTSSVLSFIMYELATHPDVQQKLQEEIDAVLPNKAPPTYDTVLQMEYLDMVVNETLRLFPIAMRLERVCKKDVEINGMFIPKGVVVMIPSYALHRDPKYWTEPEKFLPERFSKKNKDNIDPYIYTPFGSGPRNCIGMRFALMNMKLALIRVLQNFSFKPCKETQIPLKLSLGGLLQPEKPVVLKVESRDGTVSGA

Question: Which “Systemic exposures (AUC0–24h and Cmax) across dose levels” value ([1]; daily doses ranging from 180 mg to 960 mg) does the source give for C=CC(=O)N1CCN(c2nc(=O)n(-c3c(C)ccnc3C(C)C)c3nc(-c4c(O)cccc4F)c(F)cc23)[C@@H](C)C1 [sotorasib] here?
Answer: Its value is “similar”.

Question: And the AUC(0-t) ([1]; 180 mg)?
Answer: Its AUC(0-t) is 31700 ng·h/mL.

Question: And the Cmax ([1]; 180 mg)?
Answer: Its Cmax is 6440 ng/mL.

Question: And the Tmax ([1]; 180 mg)?
Answer: Its Tmax is 0.73 h.

Question: What about the half-life ([1]; 180 mg) of the same compound?
Answer: The half-life was 5.13 h.

Question: And the AUC(0-t) ([1]; 360 mg)?
Answer: The AUC(0-t) was 38900 ng·h/mL.

Question: And the Cmax ([1]; 360 mg)?
Answer: The Cmax was 6310 ng/mL.

Question: What about the half-life ([1]; 360 mg) of the same compound?
Answer: Its half-life is 5.53 h.

Question: What about the AUC(0-t) ([1]; 720 mg) of the same compound?
Answer: Its AUC(0-t) is 42100 ng·h/mL.

Question: And the Cmax ([1]; 720 mg)?
Answer: The Cmax was 5450 ng/mL.

Question: And the Tmax ([1]; 720 mg)?
Answer: The Tmax was 1.1 h.

Question: And the half-life ([1]; 720 mg)?
Answer: Its half-life is 4.75 h.

Question: What about the AUC(0-t) ([1]; 960 mg) of the same compound?
Answer: Its AUC(0-t) is 32400 ng·h/mL.

Question: What about the Cmax ([1]; 960 mg) of the same compound?
Answer: The Cmax was 5390 ng/mL.

Question: What about the Tmax ([1]; 960 mg) of the same compound?
Answer: The Tmax was 1.1 h.

Question: And the half-life ([1]; 960 mg)?
Answer: The half-life was 5.07 h.

Question: What about the “Adverse event: abdominal pain” value (patients with NSCLC; [3]) of the same compound?
Answer: The value was 15%.

Question: And the “Adverse event: constipation” value (patients with NSCLC; [3])?
Answer: Its value is 16%.

Question: What about the “Adverse event: cough” value (patients with NSCLC; [3]) of the same compound?
Answer: Its value is 20%.

Question: What about the “Adverse event: decreased appetite” value (patients with NSCLC; [3]) of the same compound?
Answer: Its value is 13%.

Question: What about the “Adverse event: diarrhea” value (patients with NSCLC; [3]) of the same compound?
Answer: The value was 42%.

Question: And the “Adverse event: dyspnea” value (patients with NSCLC; [3])?
Answer: The value was 16%.

Question: What about the “Adverse event: edema” value (patients with NSCLC; [3]) of the same compound?
Answer: The value was 15%.

Question: What about the “Adverse event: musculoskeletal pain” value (patients with NSCLC; [3]) of the same compound?
Answer: Its value is 35%.

Question: And the “Adverse event: pneumonia” value (patients with NSCLC; [3])?
Answer: The value was 12%.

Question: What about the “Adverse event: rash” value (patients with NSCLC; [3]) of the same compound?
Answer: Its value is 12%.

Question: And the “Adverse event: vomiting” value (patients with NSCLC; [3])?
Answer: Its value is 17%.

Question: And the “Discontinuation due to hepatotoxicity” value (patients with NSCLC; [3])?
Answer: The value was 4.9%.

Question: And the “Permanent discontinuation due to an AE” value (patients with NSCLC; [3])?
Answer: The value was 9%.

Question: And the “Serious AE: diarrhea” value (patients with NSCLC; [3])?
Answer: The value was 2%.

Question: And the “Serious AE: hepatotoxicity” value (patients with NSCLC; [3])?
Answer: Its value is 3.4%.

Question: What about the “Serious AE: pneumonia” value (patients with NSCLC; [3]) of the same compound?
Answer: The value was 8%.

Question: And the “Serious AEs, patients” value (patients with NSCLC; [3])?
Answer: Its value is 50%.

Question: What about the “Adverse event: hepatotoxicity” value (patients with NSCLC; 204 patients with NSCLC, 960 mg daily, grouped term) of the same compound?
Answer: The value was 25%.

Question: And the “Resolution of hepatotoxicity after dose reduction or interruption” value (patients with NSCLC; cases with dose reduction or interruption)?
Answer: The value was 91%.

Question: And the “Patients with hepatotoxicity requiring dose reduction or interruption” value (patients with NSCLC; of the 50 patients with an event of hepatotoxicity (n=23))?
Answer: The value was 46%.

Question: And the “Patients with hepatotoxicity treated with systemic corticosteroids” value (patients with NSCLC; of the 357 patients treated with 960 mg daily)?
Answer: The value was 5%.

Question: What about the “Most common adverse reactions (≥20%)” value (patients with NSCLC; patients with NSCLC in CodeBreaK 100) of the same compound?
Answer: Its value is “diarrhea, musculoskeletal pain, nausea, fatigue, hepatotoxicity, and cough”.

Question: What about the “Hepatotoxicity events that were severe (Grade 3 or 4)” value (patients with NSCLC; primary safety population) of the same compound?
Answer: The value was 12%.

Question: And the Renal toxicity events (patients with NSCLC; primary safety population)?
Answer: Its Renal toxicity events is “rare, mild to moderate, and did not require dose reduction or discontinuation”.

Question: What about the Interstitial lung disease/pneumonitis (patients with NSCLC; primary safety population, three patients, one fatal case) of the same compound?
Answer: The Interstitial lung disease/pneumonitis was 1.5%.

Question: What about the “Most notable toxicity (renal toxicity) findings” value (rats; 3-month rat study) of the same compound?
Answer: Its value is “renal tubular degeneration/necrosis and increased kidney weight with biomarkers of renal tubular injury”.

Question: And the “Recovery of renal toxicity” value (rats; after two months)?
Answer: Its value is “Partial recovery”.

Question: And the Main metabolising enzyme (CYP3A4)?
Answer: The Main metabolising enzyme was “primarily metabolized by CYP3A4”.

Question: And the “Food effect on administration” value [2]?
Answer: The value was “may be taken with or without food”.

Question: What about the Route of elimination [2] of the same compound?
Answer: The Route of elimination was “mainly eliminated via the fecal route with minor renal excretion”.

Question: What about the Renal toxicity (Beagle dogs) of the same compound?
Answer: Its Renal toxicity is “not identified”.
